Assays:
Format in all cases: in vivo, human
[1] = system: patients with relapsed, recurrent and/or metastatic cervical cancer; test: Phase IIa single arm trial: safety and tolerability (CTCAE v4.03); conditions: 2.0 mg/kg q3w
Description: (§1) A Phase IIa single arm, multicenter trial investigated the efficacy, safety and tolerability of 2.0 mg/kg tisotumab vedotin in patients with relapsed, recurrent and/or metastatic cervical cancer. A total of 34 patients (n=34) were enrolled and received at least 1 dose of tisotumab vedotin. Each eligible patient was assigned to receive an intravenous (IV) infusion dose of tisotumab vedotin at a concentration of 2.0 mg/kg on day 1 of a 21-day cycle (i.e., each treatment cycle was 3 weeks (q3w)).
Lyophilized vials containing 40 mg of tisotumab vedotin were stored in a refrigerator at 2° C. to 8° C. Tisotumab vedotin was reconstituted in 4 ml of water leading to a reconstituted solution comprising 10 mg/mL tisotumab vedotin, 30 mM histidine, 88 mM sucrose, and 165 mM D-mannitol. […] The reconstituted tisotumab vedotin was diluted into a 0.9% NaCl 100 mL infusion bag according to the dose calculated for the patient to receive 2.0 mg/kg tisotumab vedotin. Intravenous infusion was completed within 24 hours after the tisotumab vedotin vial had been reconstituted. A 0.2 μm in-line filter was used for the intravenous infusion. The entire 100 mL volume from the prepared infusion bag was administered. No dead volume was provided.
(§2) A primary objective of the study was to assess safety and tolerability of tisotumab vedotin. Adverse event (AE) severity was graded according to CTCAE version 4.03. A secondary objective was preliminary evaluation of anti-tumor activity durability as assessed according to RECIST version 1.1. Tumor evaluations were performed by CT scans every six weeks.

[2] = system: relapsed, recurrent and/or metastatic cervical cancer; test: Phase IIa single arm trial: anti-tumor activity per RECIST v1.1; conditions: 2.0 mg/kg q3w
Description: as §1, §2

[3] = system: tisotumab vedotin treated patients; test: Adverse events of special interest reported in tisotumab vedotin treated patients
From the text: Three adverse events of special interest are ocular adverse events, adverse events of peripheral neuropathy, and adverse events of bleeding. […] Severe cases (CTCAE grade 3) of conjunctivitis and keratitis are observed, however implementation of a comprehensive mitigation plan and preventive measures substantially reduce both the frequency and severity of ocular adverse reactions. In order to prevent ocular AEs, the following ocular pre-medication guidelines are followed: use of preservative-free lubricating eye drops from the start of treatment with tisotumab vedotin until the end of treatment; avoid use of contact lenses while treated with tisotumab vedotin; use of refrigerator-based eye cooling pads during infusion, e.g. THERA PEARL Eye Mask or similar, to be applied immediately before infusion in accordance with the instructions provided with the eye cooling pads; administration of local ocular vasoconstrictor before infusion (brimonidine tartrate 0.2% eye drops or similar, 3 drops in each eye immediately prior to start of infusion; otherwise to be used in accordance with the product prescribing information).
A mitigation plan, including dose reduction (see Table 9) and dose delay (i.e., hold dosing until event has improved to ≤grade 1), is in place to prevent onset of peripheral neuropathy as well as deterioration of pre-existing conditions. For AEs of bleeding: Bleeding events are considered of special interest due to the mode of action of tisotumab vedotin. […] Excluding epistaxis, no causal relation has been established for the majority of the reported bleeding events and treatment with tisotumab vedotin.

[4] = system: relapsed, recurrent and/or metastatic cervical cancer; test: Phase IIa single arm trial: anti-tumor activity per RECIST v1.1

tisotumab vedotin
grade 4 or grade 5 events ([1]; 34 patients): no grade 4 or grade 5 events | patients withdrew from treatment due to AE ([1]; 34 patients): 5 n | patients experienced conjunctivitis at grade≥3 ([1]; after mitigation (n=19)): 5% | patients experienced conjunctivitis of any grade ([1]; after mitigation (n=19)): 32% | patients experienced conjunctivitis of any grade ([1]; prior to mitigation (n=15)): 73% | safety profile, overall conclusion ([1]; cervical cancer cohort): manageable safety profile | patients withdrew from treatment due to disease progression ([2]; 34 patients): 16 n | Median DoR for confirmed and unconfirmed responses ([2]; N = 34): ^eMedian DoR of 5.4 months for confirmed and unconfirmed responses. | Median PFS ([2]; N = 34): 6.4 months | confirmed PR ([2]; N = 34): 8 | unconfirmed PR ([2]; N = 34, 1 of which is still ongoing): 3 | Objective response rate (ORR) ([2]; N = 34, 95% Confidence interval 17%-50%): 32 % of total patients | DCR (CR + PR + SD) ([2]; N = 34, clinical benefit after 12 weeks, 95% Confidence interval 35%-65%): 50 % of total patients | efficacy, overall conclusion ([2]; cervical cancer cohort): robust efficacy | AEs of grade 1-2 conjunctivitis ([3]; human, in vivo): frequently reported | impact on activated partial thromboplastin time (aPTT) or prothrombin time (PT) ([3]; human, in vivo): no major impact | peripheral neuropathy, grade of the reported cases ([3]; leading cause of permanent discontinuation): majority of the reported cases are grade 1-2 | Epistaxis ([3]; nearly all of the cases are grade 1): most common reported AE | Median DoR ([4]; 2.0 mg/kg q3w, N = 34): 8.3 months | Objective response rate (ORR) ([4]; 2.0 mg/kg q3w, N = 34): 11 n | DCR (CR + PR + SD) ([4]; 2.0 mg/kg q3w, N = 34, clinical benefit after 12 weeks): 17 n | ORR, combined unconfirmed + confirmed ([4]; expanded cohort, all efficacy-evaluable patients, N 51): 16 N | ORR, combined unconfirmed + confirmed ([4]; expanded cohort, all efficacy-evaluable patients, N 51, 95% CI 19-46): 31% | ORR, combined unconfirmed + confirmed ([4]; histology Adenocarcinoma, N 18): 4 N | ORR, combined unconfirmed + confirmed ([4]; histology Adenocarcinoma, N 18, 95% CI 6-48): 22% | ORR, combined unconfirmed + confirmed ([4]; histology Adenosquamous, N 4): 2 N | ORR, combined unconfirmed + confirmed ([4]; histology Adenosquamous, N 4, 95% CI 7-93): 50% | ORR, combined unconfirmed + confirmed ([4]; histology Other, N 2): 1 N | ORR, combined unconfirmed + confirmed ([4]; histology Other, N 2, 95% CI 1-99): 50% | ORR, combined unconfirmed + confirmed ([4]; histology Squamous, N 27): 9 N | ORR, combined unconfirmed + confirmed ([4]; histology Squamous, N 27, 95% CI 17-54): 33% | ORR, combined unconfirmed + confirmed ([4]; prior GOG 240 regimen No, N 14): 4 N | ORR, combined unconfirmed + confirmed ([4]; prior GOG 240 regimen No, N 14, 95% CI 8-58): 29% | ORR, combined unconfirmed + confirmed ([4]; prior GOG 240 regimen Yes, N 37): 12 N | ORR, combined unconfirmed + confirmed ([4]; prior GOG 240 regimen Yes, N 37, 95% CI 18-50): 32% | ORR, combined unconfirmed + confirmed ([4]; prior bevacizumab No, N 11): 4 N | ORR, combined unconfirmed + confirmed ([4]; prior bevacizumab No, N 11, 95% CI 11-69): 36% | ORR, combined unconfirmed + confirmed ([4]; prior bevacizumab Yes, N 40): 12 N | ORR, combined unconfirmed + confirmed ([4]; prior bevacizumab Yes, N 40, 95% CI 17-47): 30% | ORR, combined unconfirmed + confirmed ([4]; prior lines of systemic therapy 1, N 23): 8 N | ORR, combined unconfirmed + confirmed ([4]; prior lines of systemic therapy 1, N 23, 95% CI 16-57): 35% | ORR, combined unconfirmed + confirmed ([4]; prior lines of systemic therapy 2, N 17): 6 N | ORR, combined unconfirmed + confirmed ([4]; prior lines of systemic therapy 2, N 17, 95% CI 14-62): 35% | ORR, combined unconfirmed + confirmed ([4]; prior lines of systemic therapy 3-4, N 11): 2 N | ORR, combined unconfirmed + confirmed ([4]; prior lines of systemic therapy 3-4, N 11, 95% CI 2-52): 18% | ORR, combined unconfirmed + confirmed ([4]; prior taxane No, N 3): 1 N | ORR, combined unconfirmed + confirmed ([4]; prior taxane No, N 3, 95% CI 1-91): 33% | ORR, combined unconfirmed + confirmed ([4]; prior taxane Yes, N 48): 15 N | ORR, combined unconfirmed + confirmed ([4]; prior taxane Yes, N 48, 95% CI 19-46): 31%
